Experimental data reported in patent US7226741B2, “Multimerization of HIV-1 Vif protein as a therapeutic target” (priority 2001, dated 2007).

Target: T1, HIV-1 Vif protein (Vif-Vif interaction) (Human immunodeficiency virus type 1 group M subtype B, UniProt P12504)
T1 construct: The vif gene also was inserted into pGEX vector for in vitro expression and isolation of GST-Vif fusion protein; The PCR-generated wild-type vif gene and its mutants were then inserted into pCITE-4a vector; made in house; host or cells: GST-Vif: E. coli BL21 (pGEX); 35S-Vif: in vitro translation from pCITE-4a (Novagen kit)
T1 sequence (P12504 whole entry, the tested form may be a part): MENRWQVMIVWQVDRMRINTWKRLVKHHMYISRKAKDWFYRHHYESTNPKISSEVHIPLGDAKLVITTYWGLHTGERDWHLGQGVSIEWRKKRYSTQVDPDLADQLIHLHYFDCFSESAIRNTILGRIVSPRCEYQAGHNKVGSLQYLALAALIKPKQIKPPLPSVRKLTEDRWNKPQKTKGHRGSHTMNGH
Assay type: binding
Conditions: for 35S-Vif binds with GST-Vif (%) Mean ± SD: peptide added to the Vif-Vif binding reaction, no peptide (GST pull-down) designated as 100%; for Inhibition of Vif-Vif interaction (in words): synthesized peptides added into the reaction system for Vif-Vif binding, in vitro
Procedure: The vector pGEX, with or without the vif gene, was transformed into BL21 competent cells (Novagen, Madison, Wis.). After growth at 37° C. to approximately 0.6 O.D., the expression of GST or GST-Vif proteins was induced by 0.4 mM isopropylthio-β-D-galactoside (IPTG). The bacterial cells were lyzed by adding lysing buffer (1% Triton-X-100, 0.1 mg/ml lysozyme, 2 mM EDTA, 1 mM PMSF, 2 μg/ml leupeptin, and 1 μg/ml aprotinin), followed by sonication. The sample was pelleted at 12,000 g for 10 min at 4° C., and the supernatant was applied to a glutathione-conjugated agarose bead (Sigma, St. Louis, Mo.) column. After batch binding, the matrix was washed three times, each time by the addition of 10 bed volumes of phosphorus-buffer saline (PBS). The GST or GST-Vif conjugated agarose beads were then aliquoted and stored at −20° C. Conversely, ^35S-labeled Vif or its mutant proteins were synthesized utilizing SPT3 kits (Novagen, Madison, Wis.). The protocol supplied by the manufacturer was followed. After in vitro translation, RNase A (0.2 mg/ml) was added to stop the reaction and remove tRNAs and the in vitro transcribed mRNA. The trichloroacetic acid (TCA)-insoluble radioactive amino acids were quantitated in the presence of a scintillation cocktail.
For GST pull-down assays, a GST or GST-Vif conjugated bead slurry was mixed with ^35S-labeled Vif or its mutants (50,000 cpm) in a binding buffer [150 mM NaCl, 20 mM Tris-HCl (pH 7.5), 0.1% Triton-X-100]. After binding at 4° C. for 1 hour, the mixture was centrifuged at 3,000 g for 1 min, and the beads were washed three times with binding buffer. The ^35S-labeled Vif proteins were dissociated from the beads by adding SDS-containing loading buffer and heating at 95° C. for 5 minutes. The samples were then electrophoresized in SDS-PAGE gels (15% Tris-HCl ready gel made by Bio-Rad, Hercules, Calif.). After treatment with the fixing buffer (10% acetic acid, 10% methanol) and then the Amplify (Amersham-Pharmacia, Piscataway, N.J.), the gels were dried and exposed to X-ray film or quantitatively analyzed utilizing phosphor image (Molecular Dynamics, Sunnyview, Calif.).
A Vif-Vif binding assay was similar to the GST pull-down assays, except that the GST or GST-Vif conjugated bead slurry was mixed with ^35S-labeled Vif and the test peptides or molecules in the binding buffer. The results were compared to that from the GST pull-down assay, which was designated as 100%.

| Sequence | 35S-Vif binds with GST-Vif (%) Mean ± SD | Inhibition of Vif-Vif interaction (in words) |
| --- | --- | --- |
| ESAIRKAILGHIVSP [Vif117-131] | 94.5 ± 11.2% |  |
| KKIKPPLPSVTKLTE [Vif157-171] | 49.2 ± 2.5% | able to inhibit the Vif-Vif interaction |
| KPKKIKPPLPSV [Vif155-166] | 57.1 ± 8.7% | able to inhibit the Vif-Vif interaction |
| LPLPAPSFHRTT [VMI9] | 22.0 + 6.2% | significantly inhibit Vif-Vif interaction |
| PPLPSVTKLTEDRWN [Vif161-175] | 70.2 ± 5.5% | able to inhibit the Vif-Vif interaction |
| SNQGGSPLPRSV [VMI7] | 19.0 ± 2.2% | significantly inhibit Vif-Vif interaction |
| SVSVGMKPSPRP (Synthetic peptide containing PXP motif) [VMI5, 12-mer peptide containing a PXP motif] | 36.3 ± 5.1% |  |
